Tests used:
[1] = system: human STING pathway in THP1-ISG cells; experiment: STING human cell reporter assay; assay type: cell-based; conditions: 24 h, mean of at least three values
Method: STING Human Cell Reporter Assay
Agonism of the human STING pathway is assessed in THP1-ISG cells (Invivogen, cat #thp-isg) derived from human THP1 monocyte cell line by stable integration of an interferon regulatory factor (IRF)-inducible SEAP reporter construct. THP1-Blue ISG cells express a secreted embryonic alkaline phosphatase (SEAP) reporter gene under the control of an ISG54 minimal promoter in conjunction with five interferon (IFN)-stimulated response elements. As a result, THP1-Blue ISG cells allow the monitoring of IRF activation by determining the activity of SEAP. The levels of IRF-induced SEAP in the cell culture supernatant are readily assessed with alkaline phosphatase detection medium, a SEAP detection reagent. These cells are resistant to Zeocin. […] To run the assay, 60,000 cells were dispensed in 30 μL/well of a white, opaque bottom tissue culture treated 384-well plate.
Test compounds were added in a volume of 10 μL (1% DMSO final concentration). Compounds are initially prepared in 100% DMSO, spotted on an intermediate dilution plate and then diluted in media prior to transfer. The assay was incubated for 24 h at 37 °C, 5% CO2 then plates were centrifuged at 1200 rpm (120× g) for 5 min. After final incubation, 90 μL of alkaline phosphatase detection medium-substrate was added to each well of a new 384-well clear plate and 10 μL of the cell supernatant was transferred from the assay plate to the new alkaline phosphatase detection medium-plate using a Biomek FX and mixed 4 times.

[2] = system: CT26 colon carcinoma tumor; experiment: STING in vivo activity, mouse CT26 tumor model; conditions: CT26 tumor in Balb/c mice, 0.05 mg intratumorally every three days, three doses; for In vivo activity (cures): animals with no measurable tumor of 8
Method: For all studies, female Balb/c mice were obtained from Charles River Labs (Wilmington, Mass.) and used when they were 6-8 weeks of age and weighed approximately 20 g. All animals were allowed to acclimate and recover from any shipping-related stress for a minimum of 5 days prior to experimental use. Reverse osmosis chlorinated water and irradiated food (Laboratory Autoclavable Rodent Diet 5010, Lab Diet) were provided ad libitum, and the animals were maintained on a 12 h light and dark cycle. Cages and bedding were autoclaved before use and changed weekly. All experiments were carried out in accordance with The Guide for the Care and Use of Laboratory Animals and were approved by the Institutional Animal Care and Use Committee of Janssen R & D, Spring House, Pa. Each experimental group contained 8 mice. In vivo efficacy in a mouse CT26 tumor model was determined by implanting 500,000 CT26 colon carcinoma tumor cells subcutaneously into Balb/c mice and allowing tumors to establish to 100-300 mm^3. Compounds were injected intratumorally formulated in phosphate buffered saline in a volume of 0.1 ml per injection. Mice were administered 0.05 mg every three days for a total of three doses. Efficacy was measured as the percent tumor growth inhibition (TGI) calculated by the reduction in size of the Treated tumor volume (T) over the Control tumor volume (C) according to the following formula: ((C−T)/(C))*100 when all control animals were still on study. Cures were defined as the number of animals with no measurable tumor detected 10 tumor volume doubling times (TVDT) after the last dose was administered.

[3] = system: IFN-β secretion in THP1-Blue ISG cells; experiment: Human interferon-β induction assay; assay type: cell-based; conditions: total cumulative IFN-β induction over the dose range tested (0.78 to 50 uM) in THP-1 cells
Method: Human Interferon-β Induction Assay
THP1-Blue ISG cells are used to measure the secretion of IFN-β into the culture supernatant following STING pathway activation. To run the assay, anti-IFN-β capture antibodies were coated on 96 well MultiArray plates (Mesoscale Discovery). After a one hour incubation, plates were washed and 50 μL supernatant from the STING human cell reporter assay plates or IFN-β standards were mixed with 20 μL Sulfotag-conjugated detection antibody in the coated plates. Plates were incubated, shaking for 2 h, washed, and read buffer was applied. Electrochemiluminescence was measured on the Sectorlmager.

[4] = system: HBV infected PHH cells; experiment: Suppression of HBV virus in PHH cells using conditioned media from STING activated primary human PBMC; assay type: cell-based, hepatitis B virus; conditions: conditioned media from PBMCs stimulated at 20, 4, 0.8 μM for 48 h, 1:1 on HBV infected PHH cells; HBsAg 8 days later; two donors; read-out: EC50 (HBsAg production)
Source text: Suppression of HBV Virus in PHH Cells Using Conditioned Media from STING Activated Primary Human PBMC
Primary human hepatocytes can be infected with hepatitis B virus and during an established infection, will produce viral proteins such as HBsAg and HBeAg that can be detected by ELISA. Therapeutic treatment with compounds such as entecavir can suppress HBV reproduction, which can be measured by decreased viral protein production. (# of cells) 4×10^5 cells/well primary human hepatocytes (BioReclamation, Westbury, N.Y.) were dispensed into 500 μL/well of flat-bottom, tissue culture treated, 24-well plates. 24 h later, cells were infected with 30-75 moi of HBV. On the next day, the PHH were washed 3× and fresh maintenance media was added to the cells. Concurrently, PBMC were isolated as described previously. To stimulate the PBMC, 10,000,000 cells were dispensed into 400 μL/well of flat-bottom, tissue culture treated, 24-well plates. […] Cells were measured for activation marker upregulation using flow cytometery. […] Samples were analyzed on an Attune NxT flow cytometer (Thermo Fisher, Carlsbad, Calif.)
From the stimulated PBMC cultures, a portion of supernatant was reserved for cytokine detection by Luminex, as described previously. […] Following 96 h, the media was collected and HBsAg was measured.

[5] = target: STING (Homo sapiens, UniProt Q86WV6, H232R); experiment: STING SPA binding assay; conditions: displacement of [3H]-2′3′-cGAMP; mean of at least three values; read-out: hSTING SPA IC50
STING, sequence (Q86WV6 139-379 H232R): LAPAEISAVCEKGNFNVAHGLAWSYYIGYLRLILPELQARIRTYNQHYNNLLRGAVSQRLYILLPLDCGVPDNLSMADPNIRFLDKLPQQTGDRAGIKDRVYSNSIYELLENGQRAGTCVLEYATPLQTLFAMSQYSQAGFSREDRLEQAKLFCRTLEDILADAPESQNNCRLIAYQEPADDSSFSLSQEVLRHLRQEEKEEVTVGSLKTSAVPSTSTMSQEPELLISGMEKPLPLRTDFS
Method: The HIS tag is cleaved after purification and prior to biotinylation.
Test compounds (80 nL) were added with an acoustic dispenser (EDC Biosystems) in 100% DMSO for a final assay concentration of 1% DMSO. Plates were centrifuged for 1 min and incubated for 60 min at room temperature. Finally, (2 μL) polystyrene streptavidin SPA beads (PerkinElmer RPNQ0306) were added and plates were sealed and centrifuged for 1 min at room temperature. Plates were dark adapted for 2 h and read on a ViewLux (Perkin Elmer) for 12 min per plate.

Compound | EC50 [1] [nM] | In vivo activity (% TGI) [2] [%] | In vivo activity (cures) [2] | human IFN-β (ranking value) [3] | EC50 [4] [nM] | IC50 [5] [nM]
Nc1nc2c(ncn2C2OC3CO[P@@](=O)(S)OC4C(CO[P@@](=O)(S)OC2C3O)OC(n2cnc3c(N)ncnc32)C4F)c(=O)[nH]1 (single isomer, unassigned) [Compound 4] | 90 | 93.7 | 6/8 | 2247 | – | –
Nc1nc2c(ncn2C2OC3CO[P@](=O)(S)OC4C(CO[P@](=O)(S)OC2C3O)OC(n2cnc3c(N)ncnc32)C4F)c(=O)[nH]1 (single isomer, unassigned) [Compound 5] | 160 | 93.3 | 7/8 | 2737 | – | –
B[P@]1(=O)OCC2OC(n3cnc4c(=O)[nH]c(N)nc43)C(O[P@@](B)(=O)OCC3OC(n4cnc5c(N)ncnc54)C(O)C3O1)C2O (single isomer, unassigned) [Compound 7] | 1120 | 94.3 | 5/8 | 2260 | 0.0851 | –
B[P@@]1(=O)OCC2OC(n3cnc4c(=O)[nH]c(N)nc43)C(O[P@](B)(=O)OCC3OC(n4cnc5c(N)ncnc54)C(O)C3O1)C2O (single isomer, unassigned) [Compound 8] | 110 | 95.3 | 4/8 | 2054 | – | –
B[P@@]1(=O)OCC2OC(n3cnc4c(=O)[nH]c(N)nc43)C(O[P@](=O)(S)OCC3OC(n4cnc5c(N)ncnc54)C(F)C3O1)C2OC (single isomer, unassigned) [Compound 9] | 640 | 89.8 | – | 2240 | – | –
B[P@]1(=O)OCC2OC(n3cnc4c(=O)[nH]c(N)nc43)C(O[P@](=O)(S)OCC3OC(n4cnc5c(N)ncnc54)C(F)C3O1)C2OC (single isomer, unassigned) [Compound 10] | 540 | – | – | 1321 | – | –
B[P@@]1(=O)OCC2OC(n3cnc4c(=O)[nH]c(N)nc43)C(O[P@](B)(=O)OCC3OC(n4cnc5c(N)ncnc54)C(F)C3O1)C2OC (single isomer, unassigned) [Compound 11] | 490 | – | – | 3840 | – | < 10
B[P@]1(=O)OCC2OC(n3cnc4c(=O)[nH]c(N)nc43)C(O[P@@](B)(=O)OCC3OC(n4cnc5c(N)ncnc54)C(F)C3O1)C2OC (single isomer, unassigned) [Compound 12] | 220 | – | – | 3860 | – | < 10
B[P@@]1(=O)OCC2OC(n3cnc4c(N)ncnc43)C(F)C2O[P@](=O)(S)OCC2OC(n3cnc4c(=O)[nH]c(N)nc43)C(O1)C2OC (single isomer, unassigned) [Compound 13] | 590 | – | – | 2900 | – | –
B[P@]1(=O)OCC2OC(n3cnc4c(N)ncnc43)C(F)C2O[P@@](=O)(S)OCC2OC(n3cnc4c(=O)[nH]c(N)nc43)C(O1)C2OC (single isomer, unassigned) [Compound 14] | 450 | – | – | 4964 | – | –
Nc1nc2c(ncn2C2OC3COP(=O)(O)OC4C5OCC4(COP(=O)(O)OC2C3O)OC5n2cnc3c(N)ncnc32)c(=O)[nH]1 (stereo not drawn) [Compound 6] | 120 | 73.9 | 1/8 | 27 | – | –
